≈ marks a conversion by molar mass, not a printed value. Calls of active or inactive are those of the source. No cut-off for these calls is given here.

Assay [1] concerns Plasmodium falciparum. Kind of assay: Antimalarial activity against Plasmodium falciparum D6 by [3H]hypoxanthine uptake relative to gedunin. Type of assay: functional.
Assay [2] concerns KB. Kind of assay: Cytotoxicity against human KB cells assessed as viability at 20000 ng/ml. It counts as functional. The note with it: read-out: Activity.
The subject of assay [3] is Plasmodium falciparum. Description: Antimalarial activity against Plasmodium falciparum W2 by [3H]hypoxanthine uptake. Type of assay: functional, organism-based.
Assay [4] concerns Plasmodium falciparum. Description: Antimalarial activity against Plasmodium falciparum D6 by [3H]hypoxanthine uptake. Type of assay: functional, organism-based.
In assay [5] the test system is KB. Description: Cytotoxicity against human KB cells. It counts as functional, cell-based.
Assay [6] deals with Plasmodium falciparum. Description: Antimalarial activity against Plasmodium falciparum. It counts as functional, organism-based.
Assay [7] deals with Plasmodium falciparum. Kind of assay: Antimalarial activity against Plasmodium falciparum FCR3TC by radioisotope micro dilution assay. It counts as functional, organism-based.
For assay [8], the system named is Plasmodium falciparum. Kind of assay: Antimalarial activity against Plasmodium falciparum at 50000 ng/ml. Type of assay: functional, organism-based.

The term IC50 denotes the concentration that gives 50% inhibition. Higher therefore signals weaker potency. `CC(=O)O[C@@H]1C[C@H]2C(C)(C)C(=O)C=C[C@]2(C)[C@H]2CC[C@@]3(C)[C@H](c4coc(C(C)=O)c4)OC(=O)[C@H]4O[C@]43[C@@]21C`: the Activity in the assay with Plasmodium falciparum [1] is recorded as 4.69%. Further, the viability at 20 µg/mL with KB [2] was found to be 38%. The IC50 in the assay on Plasmodium falciparum [3] was determined as 0.156 µg/mL (≈ 0.297 µM); with Plasmodium falciparum [4] it was 0.832 µg/mL (≈ 1.59 µM); in the assay with KB [5], 10.9 µg/mL (≈ 20.8 µM).

As for `CC(=O)O[C@@H]1C[C@H]2C(C)(C)C(=O)C=C[C@]2(C)[C@H]2CC[C@@]3(C)[C@H](c4ccoc4C(C)=O)OC(=O)[C@H]4O[C@]43[C@@]21C`, in the assay with Plasmodium falciparum [1], the Activity is listed as 29.38%. The viability at 20 µg/mL in the assay on KB [2] is 31%. In addition, the 50% inhibitory concentration (IC50) was 0.039 µg/mL (≈ 0.0743 µM) with Plasmodium falciparum [3], 0.133 µg/mL (≈ 0.254 µM) in the assay with Plasmodium falciparum [4] and 9.4 µg/mL (≈ 17.9 µM) with KB [5].

In the case of `CC(=O)O[C@@H]1C[C@H]2C(C)(C)C(=O)[C@@H]3O[C@@H]3[C@]2(C)[C@H]2CC[C@@]3(C)[C@H](c4ccoc4)OC(=O)[C@H]4O[C@]43[C@@]21C`, in the assay with Plasmodium falciparum [1], the Activity worked out at 0.93%. The viability at 20 µg/mL in the assay with KB [2] came to 81%. Besides, the IC50 in the assay with Plasmodium falciparum [3] came to 0.98 µg/mL (≈ 1.97 µM); with Plasmodium falciparum [4] it was 2.58 µg/mL (≈ 5.17 µM).

On to `C[C@@H]1CC[C@H]2[C@@H](C)C(=O)O[C@@H]3O[C@@]4(C)CC[C@@H]1[C@]32OO4` [ARTEMISININ], for which, in the assay on Plasmodium falciparum [1], the Activity is on record as 2170%. Also, the IC50 in the assay on Plasmodium falciparum [3] is 0.0005 µg/mL (≈ 0.00177 µM); with Plasmodium falciparum [4], 0.0018 µg/mL (≈ 0.00638 µM); with KB [5], over 20 µg/mL.

`CCN(CC)CCCC(C)Nc1ccnc2cc(Cl)ccc12` (stereo unspecified) [CHLOROQUINE] registered an Activity in the assay with Plasmodium falciparum [1] of 3000%. Besides, 17.4 µg/mL (≈ 54.4 µM) corresponded to half-maximal inhibition in the assay with KB [5] (IC50).

As for `CC1(C)C(=O)C=C[C@]2(C)[C@H]3CC[C@@]4(C)[C@H](c5ccoc5)OC(=O)[C@H]5O[C@]54[C@]3(C)C(=O)C[C@@H]12` [DEACETOXY-7-OXOGEDUNIN], in the assay on Plasmodium falciparum [1], the Activity is under 0.39%. The viability at 20 µg/mL with KB [2] was found to be 99%. Further, the IC50 in the assay with Plasmodium falciparum [3] and in the assay on Plasmodium falciparum [4] was over 10 µg/mL in each case.

In the case of `CC1(C)C(=O)C=C[C@]2(C)[C@H]3CC[C@@]4(C)[C@H](c5ccoc5)OC(=O)[C@H]5O[C@]54[C@]3(C)[C@H](O)C[C@@H]12` [DEACETYLGEDUNIN], the Activity in the assay on Plasmodium falciparum [1] is reported as 1.5%. Further, in the assay with KB [2], the viability at 20 µg/mL turned out to be 39%. Moreover, the values for the IC50 with Plasmodium falciparum [3] and with Plasmodium falciparum [4] were 1.28 µg/mL (≈ 2.91 µM) and 2.61 µg/mL (≈ 5.92 µM), respectively.

For the molecule `CC(=O)O[C@@H]1C[C@H]2C(C)(C)C(=O)CC[C@]2(C)[C@H]2CC[C@@]3(C)[C@H](c4ccoc4)OC(=O)[C@H]4O[C@]43[C@@]21C` [DIHYDROGEDUNIN], in the assay on Plasmodium falciparum [1], the Activity is listed as under 0.39%. Further, the viability at 20 µg/mL with KB [2] was 71%. Further, the IC50 is 0.84 µg/mL (≈ 1.73 µM) in the assay on Plasmodium falciparum [3], 2.63 µg/mL (≈ 5.43 µM) in the assay with Plasmodium falciparum [6] and over 10 µg/mL in the assay with Plasmodium falciparum [4].

Take `CC(=O)O[C@@H]1C[C@H]2C(C)(C)C(=O)C=C[C@]2(C)[C@H]2CC[C@@]3(C)[C@H](c4ccoc4)OC(=O)[C@H]4O[C@]43[C@@]21C` [GEDUNIN]: the IC50 in the assay with Plasmodium falciparum [7] amounted to 0.8 µg/mL (≈ 1.66 µM); in the assay on Plasmodium falciparum [3], 0.02 µg/mL (≈ 0.0414 µM); in the assay on Plasmodium falciparum [6], 0.72 µg/mL (≈ 1.49 µM); in the assay on Plasmodium falciparum [4], 0.039 µg/mL (≈ 0.0808 µM); in the assay on KB [5], 2.3 µg/mL (≈ 4.77 µM). For the same molecule, the viability at 20 µg/mL in the assay with KB [2] was found to be 32%.

Take `CC(=O)O[C@@H]1C[C@H]2C(C)(C)C(=O)CC[C@]2(C)[C@H]2CC[C@@]3(C)[C@H](C4CCOC4)OC(=O)[C@H]4O[C@]43[C@@]21C` (stereo partly specified) [HEXAHYDROGEDUNIN]: in the assay on Plasmodium falciparum [1], the Activity is recorded as 0.39%. In the assay on KB [2], the viability at 20 µg/mL turned out to be 99%. The IC50 is 2.13 µg/mL (≈ 4.36 µM) in the assay with Plasmodium falciparum [3] and 10 µg/mL (≈ 20.5 µM) in the assay on Plasmodium falciparum [4].

In turn, `CCOC(=O)[C@H]1[C@@H](OC(C)=O)[C@@H]2[C@@]3(C)C=CC(=O)[C@@](C)(C(=O)OC)C3=CC(=O)[C@@]2(C)[C@@]23O[C@@H]2C[C@@H](c2ccoc2)[C@]13C` [HIRITIN] had an Activity in the assay with Plasmodium falciparum [1] of 22.6%. Besides, the viability at 20 µg/mL in the assay with KB [2] stood at 4.9%. The IC50 was determined as 0.096 µg/mL (≈ 0.165 µM) with Plasmodium falciparum [3], 0.173 µg/mL (≈ 0.298 µM) in the assay on Plasmodium falciparum [4] and 0.5 µg/mL (≈ 0.861 µM) in the assay with KB [5].

Molecule `CC1(C)O[C@H]2CC(=O)OC[C@]23[C@H]2CC[C@@]4(C)[C@H](c5ccoc5)OC(=O)[C@H]5O[C@]54[C@]2(C)C(=O)C[C@@H]13` [LIMONIN] returned an IC50 in the assay on Plasmodium falciparum [7] of over 100 µg/mL. Besides, the outcome with Plasmodium falciparum [8] was inactive.

`OC(c1cc(C(F)(F)F)nc2c(C(F)(F)F)cccc12)C1CCCCN1` (stereo unspecified) [MEFLOQUINE] registered an Activity in the assay on Plasmodium falciparum [1] of 521%. Further, the IC50 with Plasmodium falciparum [3] was determined as 0.0014 µg/mL (≈ 0.0037 µM); in the assay on Plasmodium falciparum [4], 0.0075 µg/mL (≈ 0.0198 µM); in the assay with KB [5] it was 3.5 µg/mL (≈ 9.25 µM).

On to `COC(=O)C[C@H]1[C@]2(C)C3=C(C)[C@H](c4ccoc4)C[C@H]3O[C@@H]2[C@@H]2OC(=O)[C@]3(C)C=CC(=O)[C@@]1(C)[C@@H]23` [NIMBOLIDE], for which the IC50 with Plasmodium falciparum [6] was found to be 1.74 µg/mL (≈ 3.73 µM).

The molecule `C=C[C@H]1CN2CC[C@H]1C[C@H]2[C@H](O)c1ccnc2ccc(OC)cc12` [QUININE] gave an Activity in the assay with Plasmodium falciparum [1] of 264%. In addition, the IC50 was 0.0349 µg/mL (≈ 0.108 µM) in the assay with Plasmodium falciparum [3] and over 20 µg/mL in the assay with KB [5].

As for `CC(=O)O[C@@H]1C[C@H]2C(C)(C)C(=O)C=C[C@]2(C)[C@H]2CC[C@@]3(C)[C@H](C4CCOC4)OC(=O)[C@H]4O[C@]43[C@@]21C` (stereo partly specified) [TETRAHYDROGEDUNIN], in the assay with Plasmodium falciparum [1], the Activity is given as 1.56%. Further, the viability at 20 µg/mL with KB [2] turned out to be 81%. For the same molecule, the IC50 stood at 0.9 µg/mL (≈ 1.85 µM) with Plasmodium falciparum [3] and 2.5 µg/mL (≈ 5.14 µM) with Plasmodium falciparum [4].

For `CC(=O)O[C@@H]1C[C@H]2C(C)(C)[C@@H](O)CC[C@]2(C)[C@H]2CC[C@@]3(C)[C@H](c4ccoc4)OC(=O)[C@H]4O[C@]43[C@@]21C` [beta-DIHYDROGEDUNOL], the Activity in the assay with Plasmodium falciparum [1] was determined as 0.93%. In addition, the viability at 20 µg/mL in the assay on KB [2] stood at 69%. Also, the IC50 in the assay on Plasmodium falciparum [3] is 2.44 µg/mL (≈ 5.01 µM); with Plasmodium falciparum [4] it was 4.21 µg/mL (≈ 8.65 µM).

These data come from ChEMBL document CHEMBL1145690, “Antimalarial activity of tropical Meliaceae extracts and gedunin derivatives” (J Nat Prod, 1997).
